Test results reported in patent US20120225135A1 (priority 2010, published 2012).

Key:
[1] = tested on: Klebsiella terrigena, ATCC 33257; type: cell-based; conditions: pH 5
Giardia muris cysts = conditions: in vivo
Confirmed Coliform = test: Disinfection of effluents, confirmed coliforms; type: cell-based; conditions: for Confirmed Coliforms: effluents, ClO2 dose 9.86 mg/L, 30 minutes; for Confirmed Coliform per 100 mL: trickling filters effluents
biofilm = conditions: cited from earlier work
[2] = ORP stability test (ORP meter); type: physicochemical
From the text: Two further samples from the original batch were taken one was packed in an amber coloured PET bottle and the second in a HDPE plastic pouch.
Both were placed in an area out of direct sunlight and further the second sample was protected from light by a cardboard box.
Measurements of their voltage were taken using an ORP meter in accordance with the testing procedure described in the ORP related articles above.
Samples were kept in an office environment in Richmond on an exposed bench.
Sampling Equipment EUTECH INSTRUMENTS Waterproof ORPTestr 10

Total Coliform = test: Disinfection of effluents, total coliforms; type: cell-based; conditions: for Total Coliforms: effluents, ClO2 dose 9.86 mg/L, 30 minutes; for Total Coliform per 100 mL: trickling filters effluents
[3] = tested on: Saccharomyces diastaticus (70 percent sporulated); test: Microbiological effectiveness at cold temperatures; type: cell-based
Pediococcus damnosus = test: Microbiological effectiveness at cold temperatures; type: cell-based
[4] = type: physicochemical; conditions: Day 1; n 6
[5] = ClO2 dose 2.7 mg/L, contact time 5 min
[6] = ClO2 dose 2.7 mg/L, contact time 20 min
[7] = ClO2 dose 2.7 mg/L, contact time 35 min
[8] = ClO2 dose 5.0 mg/L, contact time 15 min
[9] = ClO2 dose 5.0 mg/L, contact time 30 min
[10] = ClO2 dose 10.8 mg/L, contact time 5 min
[11] = ClO2 dose 10.8 mg/L, contact time 20 min

**Q.** For [O][Cl+][O-] [Chlorine Dioxide, chlorine dioxide], which reduction in titer [1] is on record?
**A.** > 6 log 10

**Q.** What about the “reduction of infectivity for mice” value (Giardia muris cysts) of the same compound?
**A.** > 3 log 10

**Q.** What about the “Confirmed Coliforms” value (Confirmed Coliform; pH initial 4.6, final 4.4) of the same compound?
**A.** 2 MPN per 100 ml

**Q.** What about the “Confirmed Coliforms” value (Confirmed Coliform; pH initial 5.5, final 5.6) of the same compound?
**A.** 2 MPN per 100 ml

**Q.** And the “Confirmed Coliforms” value (Confirmed Coliform; pH initial 6.5, final 6.7)?
**A.** 4.5 MPN per 100 ml

**Q.** And the “Confirmed Coliforms” value (Confirmed Coliform; pH initial 7.5, final 7.6)?
**A.** 17 MPN per 100 ml

**Q.** What about the “Confirmed Coliforms” value (Confirmed Coliform; pH initial 8.2, final 8.1) of the same compound?
**A.** 33 MPN per 100 ml

**Q.** What about the “Confirmed Coliforms” value (Confirmed Coliform; pH initial 9.1, final 9.2) of the same compound?
**A.** 7.9 × 10^2 MPN per 100 ml

**Q.** What about the “Confirmed Coliforms” value (Confirmed Coliform; pH initial 10.0, final 10.0) of the same compound?
**A.** 1.3 × 10^4 MPN per 100 ml

**Q.** And the “Confirmed Coliform per 100 mL” value (Confirmed Coliform; [5])?
**A.** 1.3 × 10^7 per 100 mL

**Q.** And the “Confirmed Coliform per 100 mL” value (Confirmed Coliform; [6])?
**A.** 2.4 × 10^7 per 100 mL

**Q.** And the “Confirmed Coliform per 100 mL” value (Confirmed Coliform; [7])?
**A.** 2.4 × 10^6 per 100 mL

**Q.** What about the “Confirmed Coliform per 100 mL” value (Confirmed Coliform; [8]) of the same compound?
**A.** 2.4 × 10^6 per 100 mL

**Q.** What about the “Confirmed Coliform per 100 mL” value (Confirmed Coliform; [9]) of the same compound?
**A.** 1.1 × 10^2 per 100 mL

**Q.** What about the “Confirmed Coliform per 100 mL” value (Confirmed Coliform; [10]) of the same compound?
**A.** 1.3 × 10^3 per 100 mL

**Q.** And the “Confirmed Coliform per 100 mL” value (Confirmed Coliform; [11])?
**A.** 14 per 100 mL

**Q.** What about the “Confirmed Coliform per 100 mL” value (Confirmed Coliform; ClO2 dose 10.8 mg/L, contact time 35 min) of the same compound?
**A.** 7.8 per 100 mL

**Q.** What about the detachment of biofilms (biofilm) of the same compound?
**A.** very effective

**Q.** And the “ORP mV” value ([2]; Card Board Wine Cask, April 20 (2005/2006))?
**A.** 991 mV

**Q.** What about the “ORP mV” value ([2]; Card Board Wine Cask, August 3 (2005/2006)) of the same compound?
**A.** 987 mV

**Q.** What about the “ORP mV” value ([2]; Card Board Wine Cask, August 24 (2005/2006)) of the same compound?
**A.** 1143 mV

**Q.** What about the “ORP mV” value ([2]; Card Board Wine Cask, January 18 (2005/2006)) of the same compound?
**A.** 1021 mV

**Q.** And the “ORP mV” value ([2]; Card Board Wine Cask, July 7 (2005/2006, first entry))?
**A.** 970 mV

**Q.** And the “ORP mV” value ([2]; Card Board Wine Cask, July 12 (2005/2006, last entry))?
**A.** 975 mV

**Q.** And the “ORP mV” value ([2]; Card Board Wine Cask, July 18 (2005/2006))?
**A.** 980 mV

**Q.** And the “ORP mV” value ([2]; Card Board Wine Cask, June 2 (2005/2006))?
**A.** 970 mV

**Q.** What about the “ORP mV” value ([2]; Card Board Wine Cask, March 14 (2005/2006)) of the same compound?
**A.** 1008 mV

**Q.** What about the “ORP mV” value ([2]; Card Board Wine Cask, May 11 (2005/2006)) of the same compound?
**A.** 970 mV

**Q.** And the “ORP mV” value ([2]; Card Board Wine Cask, November 29 (2005/2006))?
**A.** 977 mV

**Q.** And the “ORP mV” value ([2]; Card Board Wine Cask, October 21 (2005/2006))?
**A.** 1036 mV

**Q.** And the “ORP mV” value ([2]; Card Board Wine Cask, September 5 (2005/2006))?
**A.** 1135 mV

**Q.** And the “ORP mV” value ([2]; Card Board Wine Cask, September 20 (2005/2006))?
**A.** 1130 mV

**Q.** And the “ORP mV” value ([2]; Sample PET bottle, April 20 2005)?
**A.** 975 mV

**Q.** And the “ORP mV” value ([2]; Sample PET bottle, Aug 8 2005)?
**A.** 926 mV

**Q.** What about the “ORP mV” value ([2]; Sample PET bottle, Aug 24 2005) of the same compound?
**A.** 960 mV

**Q.** And the “ORP mV” value ([2]; Sample PET bottle, July 10 2005)?
**A.** 960 mV

**Q.** And the “ORP mV” value ([2]; Sample PET bottle, July 20 2005)?
**A.** 954 mV

**Q.** And the “ORP mV” value ([2]; Sample PET bottle, June 12 2005)?
**A.** 970 mV

**Q.** What about the “ORP mV” value ([2]; Sample PET bottle, June 21 2005) of the same compound?
**A.** 965 mV

**Q.** What about the “ORP mV” value ([2]; Sample PET bottle, May 10 2005) of the same compound?
**A.** 980 mV

**Q.** And the “ORP mV” value ([2]; Sample PET bottle, May 20 2005)?
**A.** 971 mV

**Q.** And the “ORP mV” value ([2]; Sample PET bottle, Oct 12 2005)?
**A.** 948 mV

**Q.** And the “ORP mV” value ([2]; Sample PET bottle, Oct 28 2005)?
**A.** 941 mV

**Q.** What about the “ORP mV” value ([2]; Sample PET bottle, Sept 5 2005) of the same compound?
**A.** 955 mV

**Q.** And the “ORP mV” value ([2]; Sample PET bottle, Sept 20 2005)?
**A.** 954 mV

**Q.** What about the “Total Coliforms” value (Total Coliform; pH initial 4.6, final 4.4) of the same compound?
**A.** 4.5 MPN per 100 ml

**Q.** What about the “Total Coliforms” value (Total Coliform; pH initial 5.5, final 5.6) of the same compound?
**A.** 7.8 MPN per 100 ml

**Q.** And the “Total Coliforms” value (Total Coliform; pH initial 6.5, final 6.7)?
**A.** 7.8 MPN per 100 ml

**Q.** And the “Total Coliforms” value (Total Coliform; pH initial 7.5, final 7.6)?
**A.** 49 MPN per 100 ml

**Q.** And the “Total Coliforms” value (Total Coliform; pH initial 8.2, final 8.1)?
**A.** 4.6 × 10^2 MPN per 100 ml

**Q.** And the “Total Coliforms” value (Total Coliform; pH initial 9.1, final 9.2)?
**A.** 5.4 × 10^3 MPN per 100 ml

**Q.** And the “Total Coliforms” value (Total Coliform; pH initial 10.0, final 10.0)?
**A.** 2.4 × 10^4 MPN per 100 ml

**Q.** And the “Total Coliform per 100 mL” value (Total Coliform; [5])?
**A.** 2.4 × 10^7 per 100 mL

**Q.** What about the “Total Coliform per 100 mL” value (Total Coliform; [6]) of the same compound?
**A.** 1.3 × 10^7 per 100 mL

**Q.** And the “Total Coliform per 100 mL” value (Total Coliform; [7])?
**A.** 2.4 × 10^6 per 100 mL

**Q.** And the “Total Coliform per 100 mL” value (Total Coliform; [8])?
**A.** 2.4 × 10^6 per 100 mL

**Q.** And the “Total Coliform per 100 mL” value (Total Coliform; [9])?
**A.** 7.9 × 10^3 per 100 mL

**Q.** What about the “Total Coliform per 100 mL” value (Total Coliform; ClO2 dose 5.0 mg/L, contact time 45 min) of the same compound?
**A.** 2.4 × 10^3 per 100 mL

**Q.** What about the “Total Coliform per 100 mL” value (Total Coliform; [10]) of the same compound?
**A.** 1.3 × 10^3 per 100 mL

**Q.** And the “Total Coliform per 100 mL” value (Total Coliform; [11])?
**A.** 3.3 × 10^2 per 100 mL

**Q.** What about the “Deactivation (%)” value [3] of the same compound?
**A.** 99.999%

**Q.** What about the “Deactivation (%)” value (Pediococcus damnosus) of the same compound?
**A.** 99.999%

**Q.** And the Mean [4]?
**A.** 0.126 ppm
